Experimental data from patent US20260199367A1, “PLK1 DEGRADATION INDUCING COMPOUNDS WITH INCREASED RIGIDITY” (UPPTHERA, INC., priority 2022, published 2026).

Tests used:
Format in all cases: cell-based
PLK1 = target: T1, PLK1 (Homo sapiens, UniProt P53350); experiment: Luciferase assay for PLK1 in HeLa LgBit (PLK1-HiBit KI) cell line; conditions: released after thymidine block, compound 300 nM, luminescence after 9 hours
T1 construct: endogenous in cells; host or cells: HeLa LgBit (PLK1-HiBit KI): HeLa cells stably expressing LgBit, with CRISPR/Cas9 knock-in of HiBit at the endogenous PLK1 locus
Protocol: A HeLa cell line in which the LgBit vector was transfected and expressed stably was prepared. Then, after constructing gRNA and donor to express the HiBit amino acid sequence behind the C-terminal of the PLK1 gene, which was inherent in the cell, it was inserted into the cell together with a vector capable of expressing CRISPR/Cas9. Only the cells in which the insertion was completed and knock-in had progressed were selected, sub-cultured and used.
The compounds of Examples were completely dissolved in DMSO (Sigma-Aldrich Cat. No. D2438, Lot. No. RNBL5438) and used in the experiment.
In the case of HeLa LgBit (Plk1-HiBit KI), the compounds were treated after being released after thymidine block, and the process was as follows. Thymidine (Sigma-Aldrich Cat. No. T9250-5G) was completely dissolved in ddH2O and used in the experiment. For thymidine block, the products were treated with 2 mM of thymidine and then incubated for 24 hours. For release and chemical treatment, the medium was suctioned and washed with 1×PBS. TrypLE™ was added and incubated in 37° C. CO2 incubator (Thermo Fisher Science, Cat. No. 4111) for 5 mins. Cells neutralized by adding complete media were counted through a counter. For each well of a 96-well culture plate (SPL), 3.3×10^4 cells and a total medium volume of 150 μl were seeded and incubated in a CO2 incubator.
Each cell line was incubated in a CO2 incubator for 18 hours, and Endurazine (Promega, Cat. No. N257B) was added to each well to make up 4% of the total volume. After adding compounds of Examples in a 96-well white plate (SPL) to a concentration of 300 nM, the wavelength of the plate reader (BMG Labtech, CLARIOstar Plus) was set to 470-480 nM, and then the luminescence was tracked in real time.

[1] = test system: NCI-H526 (H526) cell line; experiment: Cell viability assay for NCI-H526 cell line; conditions: Homo sapiens, NCI-H526, 120 h, 5 days, EZ-Cytox, 0.46-3000 nM
Text: (§1) The NCI-H69 (hereafter H69) and NCI-H526 (hereafter H526) cell lines were purchased from Korea Cell Line Bank (KCLB, Seoul, Korea). For cell culture, RPMI 1640 (Gibco, Cat. No. 22400-089; Lot. No. 2537146), FBS (Gibco, Cat. No. 16000-044; Lot. No. 2511328P), Penicillin/Streptomycin (PS) (Gibco, Cat. No. 15140-122; Lot. No. 2441887), 75T cell culture flask (SPL, Cat. No. 71075), 175T cell culture flask (SPL, Cat. No. 71175), 96-well cell culture plate (SPL, Cat. No. 30096), PBS pH 7.4 (Gibco, Cat. No. 10010-023; Lot. No. 2509235), TrypLE™ Express (Gibco, Cat. No. 12605-010; Lot. No. 2323417), Cell Counter (Hematocytometer)(As one, Cat. No. 4-458-01), and 0.4% Trypan Blue Solution (DYNEBIO, Cat. No. CBT3710; Lot. No. 20221111) were used.
(§2) The compounds of Examples were completely dissolved in DMSO (Sigma-Aldrich Cat. No. D2438, Lot. No. RNBL7287) and used in the experiment. 3×10^4 cells were seeded for each well of a 96-well plate (SPL), and the cells were cultured in total volume of 150 μl. Each compound was diluted 3-folds from the highest concentration of 3000 nM to the lowest concentration of 0.46 nM. After treating the compound to each well to make the total volume of 200 μl, it was cultured in a CO2 incubator (Thermo Fisher Science, Cat. No. 4111) for 5 days. Then, after treating EZ-Cytox (DOGEN, Cat.NO. EZ-3000, Lot. No. DLS2308) 20 μl in each well, it was cultured in CO2 incubator for 4 hours. The absorbance of the completely cultured sample was measured by setting the wavelength of a plate reader (BMG Labtech, CLARIOstar Plus) to […], and was measured after shaking for 3 minutes in a plate reader before measurement.
(§3) (A: IC50 is less than 20 nM, B: IC50 is 50 nM or less, C: IC50 is 100 nM or less)

NCI-H69 (H69) cell line = experiment: Cell viability assay for NCI-H69 cell line; conditions: Homo sapiens, NCI-H69, 120 h, 5 days, EZ-Cytox, 0.46-3000 nM
Text: as §1, §2, §3

T1 sequence (P53350 whole entry): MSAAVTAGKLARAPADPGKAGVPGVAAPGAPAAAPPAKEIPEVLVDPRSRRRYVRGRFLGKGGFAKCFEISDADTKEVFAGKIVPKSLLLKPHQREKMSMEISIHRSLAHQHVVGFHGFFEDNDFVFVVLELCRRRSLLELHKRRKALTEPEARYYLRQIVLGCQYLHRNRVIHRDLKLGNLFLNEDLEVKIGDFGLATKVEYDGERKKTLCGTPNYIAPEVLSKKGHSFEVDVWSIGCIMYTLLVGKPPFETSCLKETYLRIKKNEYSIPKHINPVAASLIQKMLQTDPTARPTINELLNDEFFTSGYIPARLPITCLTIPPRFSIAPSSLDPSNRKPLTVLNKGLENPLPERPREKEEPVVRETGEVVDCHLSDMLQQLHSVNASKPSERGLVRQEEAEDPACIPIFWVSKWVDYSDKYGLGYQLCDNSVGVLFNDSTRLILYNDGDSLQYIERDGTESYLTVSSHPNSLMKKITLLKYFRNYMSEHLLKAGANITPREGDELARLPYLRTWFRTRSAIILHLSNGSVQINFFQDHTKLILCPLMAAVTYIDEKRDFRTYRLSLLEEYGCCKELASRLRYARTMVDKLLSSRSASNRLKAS

SMILES | Value (luminescence value, PLK1-HiBit) (PLK1) | IC50 [1] [nM] | IC50 (NCI-H69 (H69) cell line) [nM]
COc1cc(C(=O)NCC2CCN(CC3CCN(c4ccc(C5CCC(=O)NC5=O)cc4)CC3)CC2)ccc1Nc1ncc2c(n1)N(C1CCCC1)CC(F)(F)C(=O)N2C (stereo not drawn) [Compound 27, 4-((9-cyclopentyl-7,7-difluoro-5-methyl-6-oxo-6,7,8,9-tetrahydro-5H-pyrimido[4,5-b][1,4]diazepin-2-yl)amino)-N-((1-((1-(4-(2,6-dioxopiperidin-3-yl)phenyl)piperidin-4-yl)methyl)piperidin-4-yl)methyl)-3-methoxybenzamide] | 0.295 | ≤ 50 | ≤ 50
CC[C@@H]1C(=O)N(C)c2cnc(Nc3ccc(C(=O)NC4CCN(C(=O)CCN5CCN(c6ccc(NC7CCC(=O)NC7=O)cc6)CC5)CC4)cc3OC)nc2N1C1CCCC1 (stereo partly drawn) [Compound 24, 4-(((R)-8-cyclopentyl-7-ethyl-5-methyl-6-oxo-5,6,7,8-tetrahydropteridin-2-yl)amino)-N-(1-(3-(4-(4-((2,6-dioxopiperidin-3-yl)amino)phenyl)piperazin-1-yl)propanoyl)piperidin-4-yl)-3-methoxybenzamide] | 0.206 | < 20 | < 20
CC[C@@H]1C(=O)N(C)c2cnc(Nc3ccc(C(=O)NC4CCC(N5CCC(CNCc6ccc(C7CCC(=O)NC7=O)cc6)CC5)CC4)cc3OC)nc2N1C1CCCC1 (stereo partly drawn) [Compound 7, 4-(((R)-8-cyclopentyl-7-ethyl-5-methyl-6-oxo-5,6,7,8-tetrahydropteridin-2-yl)amino)-N-((1r,4R)-4-(4-(((4-(2,6-dioxopiperidin-3-yl)benzyl)amino)methyl)piperidin-1-yl)cyclohexyl)-3-methoxybenzamide] | 0.214 | < 20 | ≤ 50
CC[C@@H]1C(=O)N(C)c2cnc(Nc3ccc(C(=O)NC4CCC(NCC5CCN(c6ccc(C7CCC(=O)NC7=O)cc6F)CC5)CC4)cc3OC)nc2N1C1CCCC1 (stereo partly drawn) [Compound 18, 4-(((R)-8-cyclopentyl-7-ethyl-5-methyl-6-oxo-5,6,7,8-tetrahydropteridin-2-yl)amino)-N-((1r,4R)-4-(((1-(4-(2,6-dioxopiperidin-3-yl)-2-fluorophenyl)piperidin-4-yl)methyl)amino)cyclohexyl)-3-methoxybenzamide] | 0.111 | < 20 | < 20
CC[C@@H]1C(=O)N(C)c2cnc(Nc3ccc(C(=O)NC4CCC(N5CCC(CNc6cccc7c6CN(C6CCC(=O)NC6=O)C7=O)CC5)CC4)cc3OC)nc2N1C1CCCC1 (stereo partly drawn) [Compound 6, 4-(((R)-8-cyclopentyl-7-ethyl-5-methyl-6-oxo-5,6,7,8-tetrahydropteridin-2-yl)amino)-N-((1r,4R)-4-(4-(((2-(2,6-dioxopiperidin-3-yl)-1-oxoisoindolin-4-yl)amino)methyl)piperidin-1-yl)cyclohexyl)-3-methoxybenzamide] | 0.286 | < 20 | ≤ 50
COc1cc(C(=O)NCC2CCN(CC3CCN(c4ccc(NC5CCC(=O)NC5=O)cc4)CC3)CC2)ccc1Nc1ncc2c(n1)N(C1CCCC1)CC(F)(F)C(=O)N2C (stereo not drawn) [Compound 28, 4-((9-cyclopentyl-7,7-difluoro-5-methyl-6-oxo-6,7,8,9-tetrahydro-5H-pyrimido[4,5-b][1,4]diazepin-2-yl)amino)-N-((1-((1-(4-((2,6-dioxopiperidin-3-yl)amino)phenyl)piperidin-4-yl)methyl)piperidin-4-yl)methyl)-3-methoxybenzamide] | 0.259 | ≤ 50 | ≤ 100
CC[C@@H]1C(=O)N(C)c2cnc(Nc3ccc(C(=O)NC4CCC(N5CCC(CNc6ccc(C7CCC(=O)NC7=O)cc6)CC5)CC4)cc3OC)nc2N1C1CCCC1 (stereo partly drawn) [Compound 2, 4-(((R)-8-cyclopentyl-7-ethyl-5-methyl-6-oxo-5,6,7,8-tetrahydropteridin-2-yl)amino)-N-((1r,4R)-4-(4-(((4-(2,6-dioxopiperidin-3-yl)phenyl)amino)methyl)piperidin-1-yl)cyclohexyl)-3-methoxybenzamide] | 0.129 | < 20 | < 20
CC[C@@H]1C(=O)N(C)c2cnc(Nc3ccc(-c4nnc(CNC5CCC(N6CCC(NCc7ccc(C8CCC(=O)NC8=O)cc7)CC6)CC5)o4)cc3OC)nc2N1C1CCCC1 (stereo partly drawn) [Compound 16, 3-(4-(((1-((1r,4r)-4-(((5-(4-(((R)-8-cyclopentyl-7-ethyl-5-methyl-6-oxo-5,6,7,8-tetrahydropteridin-2-yl)amino)-3-methoxyphenyl)-1,3,4-oxadiazol-2-yl)methyl)amino)cyclohexyl)piperidin-4-yl)amino)methyl)phenyl)piperidine-2,6-dione] | 0.263 | ≤ 50 | ≤ 100
